For one test, the target named is T1, PI3K p110α (Homo sapiens, UniProt P42336).
T1 construct: gene PIK3CA
Description: PI3 Kinase Activity/Inhibitor Assay Kit (Millipore […]-493), competitive biotinylated-PIP3/GRP1 ELISA, PIP2 substrate. In kind it is biochemical. On the technique in general: In an ELISA, binding on a coated surface is turned into a signal by an enzyme label.

The next test deals with T2, PI3K p110β (Homo sapiens, UniProt P42338).
T2 construct: gene PIK3CB
The test is described as above. It counts as biochemical.

Molecules are shown by their SMILES. pIC50: −log10 of the molar value.

T2 sequence (P42338 whole entry): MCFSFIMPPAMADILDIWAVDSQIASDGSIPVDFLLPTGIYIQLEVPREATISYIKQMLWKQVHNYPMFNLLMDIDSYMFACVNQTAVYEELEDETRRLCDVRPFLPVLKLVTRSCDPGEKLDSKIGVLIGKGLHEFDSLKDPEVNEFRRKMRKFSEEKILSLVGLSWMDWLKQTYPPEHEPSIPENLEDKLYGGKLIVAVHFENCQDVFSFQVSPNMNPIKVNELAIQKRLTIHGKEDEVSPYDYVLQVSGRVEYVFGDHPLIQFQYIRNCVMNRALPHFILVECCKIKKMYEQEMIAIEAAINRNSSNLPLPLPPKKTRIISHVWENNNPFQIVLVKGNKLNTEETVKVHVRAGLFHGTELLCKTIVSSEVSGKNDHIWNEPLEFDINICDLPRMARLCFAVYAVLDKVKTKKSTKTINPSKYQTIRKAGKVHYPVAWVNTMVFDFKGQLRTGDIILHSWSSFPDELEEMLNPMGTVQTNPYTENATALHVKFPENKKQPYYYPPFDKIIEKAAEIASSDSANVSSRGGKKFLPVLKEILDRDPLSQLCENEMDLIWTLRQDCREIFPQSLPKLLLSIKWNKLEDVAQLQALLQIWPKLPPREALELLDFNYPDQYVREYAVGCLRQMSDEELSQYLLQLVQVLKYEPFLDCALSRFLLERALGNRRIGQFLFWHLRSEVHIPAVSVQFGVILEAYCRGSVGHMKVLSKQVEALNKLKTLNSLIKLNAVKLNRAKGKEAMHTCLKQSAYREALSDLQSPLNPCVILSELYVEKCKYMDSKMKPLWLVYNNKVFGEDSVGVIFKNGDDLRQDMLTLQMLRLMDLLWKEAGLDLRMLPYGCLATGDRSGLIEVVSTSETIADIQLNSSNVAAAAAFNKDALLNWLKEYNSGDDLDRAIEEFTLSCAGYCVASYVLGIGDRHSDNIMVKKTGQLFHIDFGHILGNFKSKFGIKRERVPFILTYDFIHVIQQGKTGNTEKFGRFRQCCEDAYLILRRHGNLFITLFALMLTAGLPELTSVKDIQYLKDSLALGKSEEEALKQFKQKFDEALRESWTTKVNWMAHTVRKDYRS
T1 sequence (P42336 whole entry): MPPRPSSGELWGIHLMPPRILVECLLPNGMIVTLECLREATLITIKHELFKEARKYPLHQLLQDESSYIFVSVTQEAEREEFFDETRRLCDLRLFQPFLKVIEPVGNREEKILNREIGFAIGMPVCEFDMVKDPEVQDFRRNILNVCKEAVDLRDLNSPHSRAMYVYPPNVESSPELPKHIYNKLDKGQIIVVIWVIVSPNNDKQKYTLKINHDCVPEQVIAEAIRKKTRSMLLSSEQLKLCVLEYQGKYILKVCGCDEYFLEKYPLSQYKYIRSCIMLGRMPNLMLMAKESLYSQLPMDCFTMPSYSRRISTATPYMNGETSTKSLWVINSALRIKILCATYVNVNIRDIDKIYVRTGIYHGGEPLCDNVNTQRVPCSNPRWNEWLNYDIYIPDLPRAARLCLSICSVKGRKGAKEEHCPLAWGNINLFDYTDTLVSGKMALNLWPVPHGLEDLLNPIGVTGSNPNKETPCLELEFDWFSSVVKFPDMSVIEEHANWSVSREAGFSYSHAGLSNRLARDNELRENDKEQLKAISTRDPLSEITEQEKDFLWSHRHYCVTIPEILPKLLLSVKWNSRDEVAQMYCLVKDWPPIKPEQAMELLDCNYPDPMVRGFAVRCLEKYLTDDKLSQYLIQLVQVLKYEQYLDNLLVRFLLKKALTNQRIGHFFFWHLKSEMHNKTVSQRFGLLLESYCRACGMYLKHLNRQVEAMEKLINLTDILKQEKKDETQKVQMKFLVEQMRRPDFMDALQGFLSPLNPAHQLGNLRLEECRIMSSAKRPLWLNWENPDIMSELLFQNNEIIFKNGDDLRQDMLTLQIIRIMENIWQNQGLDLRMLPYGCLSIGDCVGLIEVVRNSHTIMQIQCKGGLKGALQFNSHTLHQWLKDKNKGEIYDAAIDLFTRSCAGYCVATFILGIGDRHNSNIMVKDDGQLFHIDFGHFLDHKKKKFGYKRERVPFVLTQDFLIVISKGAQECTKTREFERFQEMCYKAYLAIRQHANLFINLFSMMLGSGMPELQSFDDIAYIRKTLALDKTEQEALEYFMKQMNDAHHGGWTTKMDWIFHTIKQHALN

Consider `O[C@H]1[C@H](O)[C@@H](O)[C@H](O)[C@@H](O)[C@H]1O` [MI, Myo-inositol], for which the pIC50 (commonly −log10 of the IC50, conventionally taken in molar units) at PI3K p110α is 4.04; on PI3K p110β it was 4.66.
